Test results from patent publication US8106092B2, “Treatment of solid cancers” (priority 2004, dated 2012).

How the values were obtained:
Assay type in all cases: in vivo, C57BL/6 mice
B16 lung metastases = assay: B16 lung metastasis model
Procedure: FIG. 5 is a graphical representation showing the treatment of s.c. B16 tumors with PEP005 reduced growth B16 lung metastases. C57BL/6 mice (n=7) were injected with 10^6 B16 cells s.c. and 5×10^4 B16 cell i.v. on d−2. On dO the s.c. tumors had reached an average 21.8 mm^2+SE 2.4 and were cured with 25 μg of i.t. PEP005 formulated with PEG400. On d18 the mice were euthanazed and lung weights determined (PEP005). Control mice received only i.v. B16 and naïve mice received no tumors (n=6 per group).
The activity of PEP005-mediated cure of primary tumors was assessed in a more robust model using B16 tumors rather than B16-OVA tumors and where primary tumors and lung metastases were both established prior to PEP005 treatment. When the primary tumors had reached 21.8+SE 2.4 they were cured with i.t. PEP005 injection. […] After subtracting the weight of tumor free lungs (FIG. 5A, naïve, dotted line), this represented a reduction in lung tumor burden of over 50%.

B16-OVA lung metastases = assay: B16-OVA melanoma lung metastasis model
Procedure: FIGS. 4A to D are graphical representations showing protection against secondary tumors following cure of primary tumors with PEP005. (A) C57BL/6 mice received 5×10^5 Lewis lung-OVA s.c. on the back on day less 7 (d−7). When these primary tumors had reached an average 13.6 mm^2±1.8 SE (range 10-25 mm^2) on d0 they were treated once with 16 μg of PEP005 delivered i.t. In eight mice these primary tumors were cured, and these mice received 5×10^5 Lewis lung-OVA s.c. on d4 on the opposite flank from the primary tumors. The emergence of these secondary tumors was monitored over time (PEP005 cured). In a parallel group of animals (n=5) PEP005 treatment regressed the primary tumors, but after 11-13 days the primary tumors re-emerged. These animals also received secondary tumors as above and their emergence was again monitored over time (PEP005 regressed). Two control groups were included. One group (n=6) received no primary tumors, but was treated s.c. with PEP005 and received secondary tumors on the opposite flank (white triangles, PEP005 s.c.). The second control group (n=8) also received no primary tumors, was not treated with PEP005, and received secondary tumors as above (Controls). […] Secondary B16-OVA (10^5) were injected i.v. on d6 and animals were sacrificed on d27 and lung metastases counted. […]

B16 tumors = assay: Example 2: sub-optimal topical PEP005 combined with M720/B16 vaccination and DC+IL-2, cure of primary B16 tumors
Text: To determine whether PEP005 (ingenol-3-angelate) treatment could synergize with (i) vaccine-induced anti-cancer CD4^+ T-cells/antibodies and/or (ii) DC vaccine-induced anti-cancer CD8^+ T-cells, topical PEP005 treatment was combined with vaccination using (i) B16 lysate emulsified in Montanide ISA 720 adjuvant (M720/B16) and (ii) DC2.4 cells sensitized with TRP-2 peptide, SVYDFFVWL [SEQ ID NO:1] (a dominant CD8^+ T-cell epitope for anti-B16 CM^+ T-cells) and activated with LPS (Camporeale et al, Can Res 63:3688, 2003) (DC). The latter group also received IL-2 to maintain the vaccine induced T-cells. The topical PEP005 dose (10 μg/mouse) was known not to be sufficient to cure most B16 tumors of reasonable size. Thus, this experiment sought to determine whether improvements in B16 cure rate could be achieved when sub-optimal topical PEP005 treatment was combined with other immune-based therapies.
B16 tumors were injected 2×10^4 s.c. in groups (n=5 per group) of C57BL/6 mice and after 12 days (d0) had reached 8-12 mm^2 in size. The groups of animal received the following treatments:
PEP005: On d0, the tumors in this group were treated topically with PEP005, 10 μg/mouse in 10 μl isopropanol gel.
PEP005+M720: On d−5 (day minus 5), the animals had received Montanide ISA 720 adjuvant (M720) emulsified 7:3 v:v (Elliott et al, Vaccine. 17(15-16):2009-2019, 1999) with water (volume 100 μl/mouse s.c.) and on d0, the tumors in this group were treated topically with PEP005.
PEP005+M720/B16: On d−5, the animals had received Montanide ISA 720 adjuvant (M720) emulsified 7:3 v:v (Elliott et al, 1999 supra) with B16 cell lysate (3×10^5 B16 cells per mouse s.c., volume 100 μl/mouse) and on d0, the tumors in this group were treated topically with PEP005. A modality was known to induce CD4^+ T-cells specific for B16.
PEP005+M720/B16+DC+IL-2: On d0, the tumors in this group were treated topically with PEP005 and had been given M720/B16 as for Group 4. The group also received on d0 DC in the form of a DC cell line, DC2.4. These cells were (i) sensitized with TRP-2 peptide, SVYDFFVWL [SEQ ID NO:1] […]

C/C=C(/C)C(=O)O[C@H]1C(C)=C[C@]23C(=O)[C@@H](C=C(CO)[C@@H](O)[C@]12O)[C@H]1[C@@H](C[C@H]3C)C1(C)C [PEP005, ingenol-3-angelate]
reduction in lung tumor burden (B16 lung metastases; after subtracting the weight of tumor free lungs, d18): over 50%
lung weights on d18 compared to controls (B16 lung metastases; s.c. B16 primaries cured with i.t. PEP005, lung metastases established before treatment, p=0.023): lighter
growth of lung metastases (B16-OVA lung metastases; partial regression of the primary tumors by PEP005): failed to inhibit significantly
number of lung metastases (B16-OVA lung metastases; s.c. primary B16-OVA cured by PEP005, B16-OVA i.v. six days after treatment, Wilcoxon p=0.046): reduce significantly
regression of treated tumors (B16 tumors; all PEP005 treated tumors): regressed by treatment to below detectable size
day on which tumor became visible again / emerged (B16 tumors; day (d) after treatment on d0, growth curves FIG. 7): 4-5
treated tumors re-emerging (failure rate) (B16 tumors; topical 10 μg PEP005, combined PEP005/PEP005+M720 group n=10, tumors 8-12 mm^2): 90%
